Measurements: article PMC11032351, “Epigenetic modulation through BET bromodomain inhibitors as a novel therapeutic strategy for progranulin-deficient frontotemporal dementia” (Scientific Reports, 2024)

Assays:
lysosomal genes = assay: RNA sequencing of human dermal fibroblasts, lysosomal genes; type: cell-based; details: 24 h
Procedure: Non-immortalized HDF cells (UCSF Memory and Aging Center, FTD25(X)) were cultured in high glucose DMEM with 10% FBS with supplemented L-glutamine and Pen/Strep, and grown in 100 mm plates for treatment. Cells were treated with DMSO or 1 μM mivebresib (1% DMSO) for 24 h. Trizol (Invitrogen) was used to isolate total cellular RNA, according to the manufacturer's protocol. RNA concentrations were assessed using a NanoDrop spectrophotometer (Thermo Scientific) and samples were diluted to 100 ng/10 μL in nuclease-free water (Ambion). 5 μg of each RNA sample was submitted for processing. Gene set enrichment analysis for lysosomal genes (list from Sardiello et al. 2009, Table S1) was performed using GSEA Desktop v3.0, with the following input parameters: number of permutations: 1000, scoring scheme: weighted, normalization mode: […], ranking metric: Signal2Noise, sorting: real[42]-[44]. […] Input queried against “Literature” library.

PGRN-Luc = assay: HMC3 PGRN-luciferase reporter assay; type: cell-based, human; details: HMC3 PGRN-Luc cells, 8 h of treatment
Procedure: HMC3 PGRN-Luc cells were trypsinized from confluent T-75 flasks and re-suspended in HMC-3 media at 150,000–200,000 cells/mL. 30 µL of cell suspension was then seeded onto each well of black, 384-well clear-bottom plates (Corning 3712) using the Multidrop Combi (Thermo Fisher). Cells were allowed to adhere to plates in the incubator at 37 °C/5% CO2 for 6–8 h. After 6–8 h, compounds were added to each well using the D300e (Tecan) compound dispenser, and all wells were DMSO-normalized (0.3%). Cells were allowed to incubate with compounds for indicated timeframes.
Plates were removed from the incubator and allowed to cool to RT. 15 µL of media was removed from each well using a multichannel pipette and added to separate Corning 3712 plates for a read of “secreted” PGRN. To both the media-containing plates as well as the cell-containing plates (with 15 µL media remaining) is then added 15 µL of active luminescence reagent (Thermo 18,636) which was generated according to manufacturer’s instructions. Plates were allowed to nutate at RT for 15 min prior to reading using the EnVision (PerkinElmer). For calculation of the internal PGRN-Luc signal, the secreted signal (15 µL media) was subtracted from the signal of the cell-containing plates (with 15 µL media remaining). For “total” PGRN-Luc signal, a sample of media was not aliquoted into a separate plate, and instead, 30 µL of active luminescence reagent was added directly to each well.
For the mivebresib and panobinostat time-course experiment, the above procedure was followed, with the exception that cells were seeded at 66,600 cells/mL in 30 µL media, and allowed to grow overnight prior to compound addition for the indicated timeframes.

total (combined internal and secreted) PGRN-Luc signal (PGRN-Luc): to the same extent as did panobinostat
SMILES: CCS(=O)(=O)Nc1ccc(Oc2ccc(F)cc2F)c(-c2cn(C)c(=O)c3[nH]ccc23)c1 [mivebresib]
lysosomal genes significantly upregulated (lysosomal genes; 1 µM, pre-defined list of lysosomal genes): 68/89
Log2(fold-change) ABCA2 (lysosomal genes; gene ABCA2, 1 µM, vs DMSO): 0.969
Log2(fold-change) ABCB9 (lysosomal genes; gene ABCB9, 1 µM, vs DMSO): 0.753
Log2(fold-change) ACP2 (lysosomal genes; gene ACP2, 1 µM, vs DMSO): 0.071
Log2(fold-change) ACP5 (lysosomal genes; gene ACP5, 1 µM, vs DMSO): 1.631
Log2(fold-change) AGA (lysosomal genes; gene AGA, 1 µM, vs DMSO): 1.111
Log2(fold-change) ARSA (lysosomal genes; gene ARSA, 1 µM, vs DMSO): 0.958
Log2(fold-change) ARSB (lysosomal genes; gene ARSB, 1 µM, vs DMSO): 0.697
Log2(fold-change) ARSG (lysosomal genes; gene ARSG, 1 µM, vs DMSO): 0.426
Log2(fold-change) ASAH1 (lysosomal genes; gene ASAH1, 1 µM, vs DMSO): 1.724
Log2(fold-change) CD63 (lysosomal genes; gene CD63, 1 µM, vs DMSO): 0.465
Log2(fold-change) CD68 (lysosomal genes; gene CD68, 1 µM, vs DMSO): 0.237
Log2(fold-change) CLCN7 (lysosomal genes; gene CLCN7, 1 µM, vs DMSO): 1.349
Log2(fold-change) CLN3 (lysosomal genes; gene CLN3, 1 µM, vs DMSO): -0.112
Log2(fold-change) CLN5 (lysosomal genes; gene CLN5, 1 µM, vs DMSO): 0.974
Log2(fold-change) CPVL (lysosomal genes; gene CPVL, 1 µM, vs DMSO): 4.550
Log2(fold-change) CREG1 (lysosomal genes; gene CREG1, 1 µM, vs DMSO): 1.959
Log2(fold-change) CTBS (lysosomal genes; gene CTBS, 1 µM, vs DMSO): -0.006
Log2(fold-change) CTNS (lysosomal genes; gene CTNS, 1 µM, vs DMSO): 1.077
Log2(fold-change) CTSA (lysosomal genes; gene CTSA, 1 µM, vs DMSO): 1.344
Log2(fold-change) CTSB (lysosomal genes; gene CTSB, 1 µM, vs DMSO): 0.947
Log2(fold-change) CTSC (lysosomal genes; gene CTSC, 1 µM, vs DMSO): 0.179
Log2(fold-change) CTSD (lysosomal genes; gene CTSD, 1 µM, vs DMSO): 1.383
Log2(fold-change) CTSF (lysosomal genes; gene CTSF, 1 µM, vs DMSO): 1.580
Log2(fold-change) CTSH (lysosomal genes; gene CTSH, 1 µM, vs DMSO): 2.652
Log2(fold-change) CTSK (lysosomal genes; gene CTSK, 1 µM, vs DMSO): 2.602
Log2(fold-change) CTSS (lysosomal genes; gene CTSS, 1 µM, vs DMSO): 1.574
Log2(fold-change) CTSZ (lysosomal genes; gene CTSZ, 1 µM, vs DMSO): 0.095
Log2(fold-change) DNASE2 (lysosomal genes; gene DNASE2, 1 µM, vs DMSO): 0.759
Log2(fold-change) ENTPD4 (lysosomal genes; gene ENTPD4, 1 µM, vs DMSO): -0.066
Log2(fold-change) EPDR1 (lysosomal genes; gene EPDR1, 1 µM, vs DMSO): 0.350
Log2(fold-change) FUCA1 (lysosomal genes; gene FUCA1, 1 µM, vs DMSO): 2.294
Log2(fold-change) GAA (lysosomal genes; gene GAA, 1 µM, vs DMSO): 1.285
Log2(fold-change) GALC (lysosomal genes; gene GALC, 1 µM, vs DMSO): 0.272
Log2(fold-change) GALNS (lysosomal genes; gene GALNS, 1 µM, vs DMSO): 0.664
Log2(fold-change) GBA (lysosomal genes; gene GBA, 1 µM, vs DMSO): 0.975
Log2(fold-change) GGH (lysosomal genes; gene GGH, 1 µM, vs DMSO): -0.787
Log2(fold-change) GLA (lysosomal genes; gene GLA, 1 µM, vs DMSO): 0.381
Log2(fold-change) GLB1 (lysosomal genes; gene GLB1, 1 µM, vs DMSO): 0.633
Log2(fold-change) GM2A (lysosomal genes; gene GM2A, 1 µM, vs DMSO): 0.722
Log2(fold-change) GNS (lysosomal genes; gene GNS, 1 µM, vs DMSO): 1.166
Log2(fold-change) GUSB (lysosomal genes; gene GUSB, 1 µM, vs DMSO): -0.134
Log2(fold-change) HEXA (lysosomal genes; gene HEXA, 1 µM, vs DMSO): 1.135
Log2(fold-change) HEXB (lysosomal genes; gene HEXB, 1 µM, vs DMSO): 1.117
Log2(fold-change) HGSNAT (lysosomal genes; gene HGSNAT, 1 µM, vs DMSO): 0.896
Log2(fold-change) HPSE (lysosomal genes; gene HPSE, 1 µM, vs DMSO): 1.426
Log2(fold-change) HYAL1 (lysosomal genes; gene HYAL1, 1 µM, vs DMSO): 0.217
Log2(fold-change) HYAL2 (lysosomal genes; gene HYAL2, 1 µM, vs DMSO): -0.168
Log2(fold-change) IDS (lysosomal genes; gene IDS, 1 µM, vs DMSO): 1.156
Log2(fold-change) IDUA (lysosomal genes; gene IDUA, 1 µM, vs DMSO): 1.057
Log2(fold-change) IFI30 (lysosomal genes; gene IFI30, 1 µM, vs DMSO): 1.145
Log2(fold-change) LAMP1 (lysosomal genes; gene LAMP1, 1 µM, vs DMSO): 1.227
Log2(fold-change) LAMP2 (lysosomal genes; gene LAMP2, 1 µM, vs DMSO): 1.082
Log2(fold-change) LAPTM4A (lysosomal genes; gene LAPTM4A, 1 µM, vs DMSO): 0.460
Log2(fold-change) LAPTM5 (lysosomal genes; gene LAPTM5, 1 µM, vs DMSO): 0.199
Log2(fold-change) LGMN (lysosomal genes; gene LGMN, 1 µM, vs DMSO): 1.455
Log2(fold-change) LIPA (lysosomal genes; gene LIPA, 1 µM, vs DMSO): 0.574
Log2(fold-change) LITAF (lysosomal genes; gene LITAF, 1 µM, vs DMSO): 1.022
Log2(fold-change) LMBRD1 (lysosomal genes; gene LMBRD1, 1 µM, vs DMSO): 0.119
Log2(fold-change) MAN2B1 (lysosomal genes; gene MAN2B1, 1 µM, vs DMSO): 0.586
Log2(fold-change) MAN2B2 (lysosomal genes; gene MAN2B2, 1 µM, vs DMSO): 0.870
Log2(fold-change) MANBA (lysosomal genes; gene MANBA, 1 µM, vs DMSO): 1.687
Log2(fold-change) MCOLN1 (lysosomal genes; gene MCOLN1, 1 µM, vs DMSO): 2.564
Log2(fold-change) MFSD8 (lysosomal genes; gene MFSD8, 1 µM, vs DMSO): -0.317
Log2(fold-change) MPO (lysosomal genes; gene MPO, 1 µM, vs DMSO): 1.298
Log2(fold-change) NAAA (lysosomal genes; gene NAAA, 1 µM, vs DMSO): 0.334
Log2(fold-change) NAGA (lysosomal genes; gene NAGA, 1 µM, vs DMSO): 0.034
Log2(fold-change) NAGLU (lysosomal genes; gene NAGLU, 1 µM, vs DMSO): 0.982
Log2(fold-change) NCSTN (lysosomal genes; gene NCSTN, 1 µM, vs DMSO): 0.166
Log2(fold-change) NEU1 (lysosomal genes; gene NEU1, 1 µM, vs DMSO): 2.366
Log2(fold-change) NEU4 (lysosomal genes; gene NEU4, 1 µM, vs DMSO): 1.289
Log2(fold-change) NPC1 (lysosomal genes; gene NPC1, 1 µM, vs DMSO): 1.530
Log2(fold-change) NPC2 (lysosomal genes; gene NPC2, 1 µM, vs DMSO): 1.822
Log2(fold-change) OSTM1 (lysosomal genes; gene OSTM1, 1 µM, vs DMSO): 1.559
Log2(fold-change) PCYOX1 (lysosomal genes; gene PCYOX1, 1 µM, vs DMSO): 0.963
Log2(fold-change) PPT1 (lysosomal genes; gene PPT1, 1 µM, vs DMSO): -0.819
Log2(fold-change) PPT2 (lysosomal genes; gene PPT2, 1 µM, vs DMSO): -0.987
Log2(fold-change) PSAP (lysosomal genes; gene PSAP, 1 µM, vs DMSO): 1.511
Log2(fold-change) RNASET2 (lysosomal genes; gene RNASET2, 1 µM, vs DMSO): 1.008
Log2(fold-change) SCARB2 (lysosomal genes; gene SCARB2, 1 µM, vs DMSO): 0.201
Log2(fold-change) SCPEP1 (lysosomal genes; gene SCPEP1, 1 µM, vs DMSO): 1.441
Log2(fold-change) SGSH (lysosomal genes; gene SGSH, 1 µM, vs DMSO): 0.983
Log2(fold-change) SIAE (lysosomal genes; gene SIAE, 1 µM, vs DMSO): 0.365
Log2(fold-change) SLC17A5 (lysosomal genes; gene SLC17A5, 1 µM, vs DMSO): 1.220
Log2(fold-change) SLC36A1 (lysosomal genes; gene SLC36A1, 1 µM, vs DMSO): 0.968
Log2(fold-change) SMPD1 (lysosomal genes; gene SMPD1, 1 µM, vs DMSO): 0.723
Log2(fold-change) TMEM74 (lysosomal genes; gene TMEM74, 1 µM, vs DMSO): 2.173
Log2(fold-change) TMEM92 (lysosomal genes; gene TMEM92, 1 µM, vs DMSO): -1.444
Log2(fold-change) TPP1 (lysosomal genes; gene TPP1, 1 µM, vs DMSO): 1.361
